In DBAASP:
In brackets after ≈: the same amount, converted by molar mass. Several values for one entry are separate records, joined by “and”; a condition that tells them apart may be missing. Identical values can stand only once. Blank lines part the entries; values can stand above or below the compound they belong to.

What was measured:
Test in all cases: ≥ marks a high value that may be exact or a test limit, other limits are often not marked, values filed in µg/mL are converted to µM
[1] = test system: Escherichia coli ATCC 25922
[2] = test system: Enterobacter cloacae ATCC 49141
[3] = test system: Pseudomonas aeruginosa ATCC 27853
[4] = test system: Acinetobacter baumannii ATCC 19606
Escherichia coli D21 = test system: Escherichia coli D21
[5] = test system: Enterococcus faecalis ATCC 19433
[6] = test system: Bacillus anthracis Sterne 34F2
[7] = test system: Bacillus subtilis var. niger ATCC 9372
[8] = test system: Burkholderia thailandensis
Escherichia coli K91BK = test system: Escherichia coli K91BK
[9] = test system: Staphylococcus aureus ATCC 6538
[10] = test system: Escherichia coli ATCC 2592
[11] = test system: Proteus vulgaris ATCC 6380
[12] = test system: Candida albicans ATCC 36232
Staphylococcus aureus = test system: Staphylococcus aureus
[13] = test system: Pseudomonas aeruginosa ATCC 9027
[14] = test system: Micrococcus luteus ATCC 9341
[15] = test system: Xanthomonas vesicatoria DSM 50861
[16] = test system: Pectobacterium carotovorum subsp. carotovorum DSM 30168
[17] = test system: Clavibacter michiganensis subsp. michiganensis DSM 46294
[18] = test system: Pseudomonas syringae pv. tomato DC3000
[19] = test system: Pseudomonas corrugata DSM 7228
[20] = test system: Pseudomonas syringae pv. syringae DSM 10604
[21] = test system: Staphylococcus aureus 90857
[22] = test system: Escherichia coli IFO 3972
[23] = test system: Staphylococcus aureus FDA 209P
[24] = test system: Neisseria gonorrhoeae FA19
[25] = test system: Neisseria gonorrhoeae F62
[26] = test system: Candida albicans ATCC 37092
[27] = test system: Staphylococcus aureus ATCC 29213
[28] = test system: Enterococcus faecalis ATCC 29212
[29] = test system: Staphylococcus epidermidis PIA 8400
[30] = test system: Escherichia coli NCTC 10418
[31] = test system: Staphylococcus aureus NCTC 12981
[32] = test system: Staphylococcus aureus ATCC 25923

Structure (SMILES): CC[C@H](C)[C@H](NC(=O)[C@H](CCCN=C(N)N)NC(=O)[C@@H](NC(=O)[C@@H](NC(=O)[C@H](CCCN=C(N)N)NC(=O)[C@H](CC(C)C)NC(=O)[C@@H](NC(=O)[C@@H](NC(=O)[C@@H]1CCCN1C(=O)CNC(=O)[C@H](Cc1ccc(O)cc1)NC(=O)[C@H](CCCCN)NC(=O)[C@H](CCCCN)NC(=O)[C@@H](NC(=O)[C@H](C)NC(=O)[C@H](Cc1cnc[nH]1)NC(=O)[C@@H](NC(=O)[C@@H](NC(=O)[C@H](CCCCN)NC(=O)[C@H](CCCN=C(N)N)NC(=O)CNC(=O)[C@H](CC(C)C)NC(=O)[C@H](CCCN=C(N)N)NC(=O)[C@H](CCCN=C(N)N)NC(=O)[C@H](CC(C)C)NC(=O)[C@H](C)NC(=O)CNC(C)=O)[C@@H](C)CC)[C@@H](C)O)C(C)C)[C@@H](C)O)C(C)C)[C@@H](C)CC)[C@@H](C)CC)C(=O)N[C@@H](C)C(=O)NCC(N)=O [GALRRLGRKITHAVKKYGPTVLRIIRIAG]
- MIC [6]: 1.19 µM (≈ 3.87 µg/mL)
- MIC [7]: 1.31 µM (≈ 4.27 µg/mL)
- MIC [8]: ≥ 84.1 µM
- MIC (Escherichia coli K91BK): 28.7 µM (≈ 93.4 µg/mL)

Structure (SMILES): CC[C@H](C)[C@H](NC(=O)[C@H](CC(C)C)NC(=O)[C@H](CCCCN)NC(=O)[C@H](CCCCN)NC(=O)[C@H](CC(C)C)NC(=O)[C@@H](NC(=O)[C@H](CCCCN)NC(=O)[C@H](CCCCN)NC(=O)[C@@H](NC(=O)[C@@H](NC(=O)[C@H](CCCN=C(N)N)NC(=O)[C@@H](N)CC(C)C)[C@@H](C)CC)[C@@H](C)CC)[C@@H](C)CC)C(N)=O [LRIIKKILKKLI]
- MIC [15]: 0.169 µM (≈ 0.25 µg/mL)
- MIC [16]: 1.69 µM (≈ 2.5 µg/mL)
- MIC [17]: 0.338 µM (≈ 0.5 µg/mL)
- MIC [18]: 0.169 µM (≈ 0.25 µg/mL)
- MIC [19]: 0.338 µM (≈ 0.5 µg/mL)
- MIC [20]: 0.338 µM (≈ 0.5 µg/mL)
- MIC [21]: 3 µM (≈ 4.43 µg/mL)

Structure (SMILES): CC(C)[C@H](NC(=O)[C@H](CCCCN)NC(=O)[C@H](CCCN=C(N)N)NC(=O)[C@H](CCCCN)NC(=O)[C@H](CCCCN)NC(=O)[C@H](CCCCN)NC(=O)[C@@H]1CCCN1)C(=O)O [PKKKRKV]
- MIC [22]: ≥ 500 µM
- MIC [23]: ≥ 500 µM

Structure (SMILES): CC(C)C[C@H](NC(=O)[C@H](CCCNC(=N)N)NC(=O)CNC(=O)CNC(=O)[C@@H](N)CCCNC(=N)N)C(=O)N[C@H]1CSSC[C@@H](C(N)=O)NC(=O)[C@H](C(C)C)NC(=O)[C@@H]2CSSC[C@H](NC(=O)[C@H](Cc3ccc(O)cc3)NC1=O)C(=O)N[C@@H](CCCNC(=N)N)C(=O)N[C@@H](CCCNC(=N)N)C(=O)N[C@@H](CCCNC(=N)N)C(=O)N[C@@H](Cc1ccccc1)C(=O)N2 [RGGRLCYCRRRFCVC]
- MIC [24]: 4.11 µM (≈ 7.58 µg/mL)
- MIC [25]: 0.58 µM (≈ 1.07 µg/mL)

Structure (SMILES): CC[C@H](C)[C@H](NC(=O)[C@H](Cc1c[nH]c2ccccc12)NC(=O)[C@@H](NC(=O)[C@@H](NC(=O)[C@H](Cc1c[nH]c2ccccc12)NC(=O)[C@H](CCCCN)NC(=O)[C@H](CCCCN)NC(=O)[C@@H](NC(=O)[C@@H](N)CCCN=C(N)N)[C@@H](C)O)[C@@H](C)CC)C(C)C)C(N)=O [RTKKWIVWI]
- MIC [28]: 55.3 µM and 110 µM
- MIC [29]: 13.8 µM (≈ 17 µg/mL)
- MIC [1]: 13.8 µM (≈ 17 µg/mL)
- MIC [27]: 27.7 µM (≈ 34 µg/mL)

Structure (SMILES): NC(=O)[C@H](Cc1c[nH]c2ccccc12)NC(=O)[C@H](CCCN=C(N)N)NC(=O)[C@H](Cc1c[nH]c2ccccc12)NC(=O)[C@H](CCCN=C(N)N)NC(=O)[C@@H](N)Cc1c[nH]c2ccccc12 [WRWRW]
- MIC [1]: 16.9 µM (≈ 15 µg/mL)
- MIC [30]: ≥ 72 µM
- MIC [3]: 56.2 µM (≈ 49.9 µg/mL)
- MIC [31]: ≥ 72 µM
- MIC [32]: 11.2 µM (≈ 9.99 µg/mL)

Second part, the compound after the results:

- MIC [1]: 50 µM and 75 µM
- MIC [2]: 6.2 µM (≈ 11 µg/mL)
- MIC [3]: 12.5 µM and 25 µM
- MIC [4]: 25 µM (≈ 44.2 µg/mL)
- MIC (Escherichia coli D21): 25 µM (≈ 44.2 µg/mL)
- MIC [5]: ≥ 50 µM
Structure (SMILES): CC(C)C[C@H](NC(=O)[C@H](CCCCN)NC(=O)[C@H](CCCCN)NC(=O)[C@H](CC(C)C)NC(=O)[C@H](CC(C)C)NC(=O)[C@H](CCCCN)NC(=O)[C@H](CCCCN)NC(=O)[C@H](CC(C)C)NC(=O)[C@H](CC(C)C)NC(=O)[C@H](CCCCN)NC(=O)[C@H](CCCCN)NC(=O)[C@H](CC(C)C)NC(=O)[C@H](C)NC(=O)[C@H](CC(=O)O)NC(=O)[C@@H](N)CC(=O)O)C(=O)O [DDALKKLLKKLLKKL]

- MIC [9]: 5.39 µM (≈ 12.5 µg/mL)
- MIC [10]: 5.39 µM (≈ 12.5 µg/mL)
- MIC [11]: ≥ 43.1 µM
- MIC [12]: 2.69 µM (≈ 6.25 µg/mL)
- MIC (Staphylococcus aureus): 10.8 µM (≈ 25 µg/mL)
- MIC [13]: 5.39 µM (≈ 12.5 µg/mL)
- MIC [14]: 2.69 µM (≈ 6.25 µg/mL)
Structure (SMILES): CC[C@H](C)[C@H](NC(=O)[C@H](CCCCN)NC(=O)[C@@H]1CCCN1C(=O)[C@H](CC(C)C)NC(=O)[C@H](Cc1ccccc1)NC(=O)[C@H](CC(N)=O)NC(=O)[C@H](C)NC(=O)[C@H](C)NC(=O)[C@H](CC(C)C)NC(=O)CNC(=O)[C@H](C)NC(=O)[C@H](CC(C)C)NC(=O)[C@@H](N)CC(C)C)C(=O)N[C@@H](Cc1ccccc1)C(=O)N[C@@H](CS)C(=O)N[C@@H](CCCCN)C(=O)N[C@H](C(=O)N[C@H](C(=O)N[C@@H](CCCN=C(N)N)C(=O)N[C@@H](CCCCN)C(=O)N[C@@H](CS)C(N)=O)[C@@H](C)O)[C@@H](C)CC [LLAGLAANFLPKIFCKITRKC]

- MIC [26]: 1.12 µM (≈ 3.29 µg/mL)
- MIC [1]: 0.45 µM (≈ 1.32 µg/mL)
- MIC [27]: 2.6 µM (≈ 7.64 µg/mL)
Structure (SMILES): CC[C@H](C)[C@H](NC(=O)[C@H](CCCN=C(N)N)NC(=O)[C@@H](N)CCCN=C(N)N)C(=O)N[C@@H](CCCN=C(N)N)C(=O)N1CCC[C@H]1C(=O)N[C@@H](CCCN=C(N)N)C(=O)N1CCC[C@H]1C(=O)N1CCC[C@H]1C(=O)N[C@@H](CCCN=C(N)N)C(=O)N[C@@H](CC(C)C)C(=O)N1CCC[C@H]1C(=O)N[C@@H](CCCN=C(N)N)C(=O)N1CCC[C@H]1C(=O)N[C@@H](CCCN=C(N)N)C(=O)N1CCC[C@H]1C(=O)N[C@@H](CCCN=C(N)N)C(=O)N1CCC[C@H]1C(=O)N[C@@H](CC(C)C)C(=O)N1CCC[C@H]1C(=O)N[C@@H](Cc1ccccc1)C(=O)N1CCC[C@H]1C(=O)N[C@@H](CCCN=C(N)N)C(=O)N1CCC[C@H]1C(=O)NCC(=O)O [RRIRPRPPRLPRPRPRPLPFPRPG]
